Data reported in patent publication US7847065B2, “CXADRL1 polypeptides relating to human cancers” (Oncotherapy Science, Inc., priority 2002, dated 2010).
Read-outs that look alike come from different tables or passages of the source. Ends that are not written are not given here.

Key:
LoVo colon cancer cells = assay: MTT assay after transfection of S-oligonucleotides, LoVo; type: cell-based, human; details: six days after transfection
Protocol: Cells plated onto 10-cm dishes (2×10^5 cells/dish) were transfected either with plasmid, or synthetic S-oligonucleotides of CXADRL1, GCUD1, or RNF43 using LIPOFECTIN Reagent (GIBCO BRL). Then the cells were cultured with the addition of an appropriate concentration of geneticin for six to twelve days. The cells were then fixed with 100% methanol and stained by Giemsa solution. Sequences of the S-oligonucleotides were as follows:
Cells plated at a density of 5×10^5 cells/100 mm dish were transfected in triplicate with sense or antisense S-oligonucleotides designated to suppress the expression of CXADRL1, GCUD1, or RNF43. […] Subsequently, the cells were lysed by the addition of 1 ml of 0.01 N HCl/10% SDS and the absorbance of lysates was measured with ELISA plate reader at a test wavelength of 570 nm (reference, 630 nm). The cell viability was represented by the absorbance compared to that of control cells.

RNF43 = assay: Suppression of RNF43 expression by antisense S-oligonucleotide (semi-quantitative RT-PCR), LoVo cells; type: cell-based, human; details: 12 hours after transfection
Protocol: Total RNA was extracted with Qiagen RNeasy kit (Qiagen) or Trizol reagent (Life Technologies) according to the manufacturers' protocols. Ten-microgram aliquots of total RNA were reversely transcribed for single-stranded cDNAs using poly dT12-18 primer (Amersham Pharmacia Biotech) with Superscript II reverse transcriptase (Life Technologies). Each single-stranded cDNA preparation was diluted for subsequent PCR amplification by standard RT-PCR experiments carried out in 20 μl volumes of PCR buffer (TaKaRa). Amplification was conducted under following conditions: denaturing for 4 min at 94° C., followed by 20 (for GAPDH), 35 (for CXADRL1), 30 (for GCUD1), 30 (for RNF43) cycles of 94° C. for 30 s, 56° C. for 30 s, and 72° C. for 45 s, in GeneAmp PCR system 9700 (Perkin-Elmer, Foster City, Calif.). Primer sequences were; for GAPDH: forward, 5′-[…] (SEQ ID NO: 7) and reverse, 5′-[…] (SEQ ID NO: 8); for CXADRL1: forward, 5′-[…] (SEQ ID NO: 9) and reverse: 5′-TATAAACCAG CTGAGTCCAGAG (SEQ ID NO: 10); for GCUD1 forward: 5′-[…] (SEQ ID NO: 11) reverse: 5′-[…] (SEQ ID NO: 12), for RNF43 forward; 5′-[…]-3′ (SEQ ID NO: 13) and reverse; 5′-[…]-3′ (SEQ ID NO: 14).
Cells plated onto 10-cm dishes (2×10^5 cells/dish) were transfected either with plasmid, or synthetic S-oligonucleotides of CXADRL1, GCUD1, or RNF43 using LIPOFECTIN Reagent (GIBCO BRL). […]

SNU475 = assay: Cytotoxicity of CTLs against tumor cell line SNU475; type: cell-based, human; details: SNU475 expresses CXADRL1, GCUD1 and HLA-A*0201
Protocol: (§1) Target cells were labeled with 100 μCi of Na2^51CrO4 (Perkin Elmer Life Sciences) for 1 h at 37° C. in a CO2 incubator. When peptide-pulsed targets were used, target cells were incubated with the addition of 20 μg/ml of the peptide for 16 h at 37° C. before the labeling with Na2^51CrO4. Target cells were rinsed and mixed with effectors at a final volume of 0.2 ml in round-bottom microtiter plates. The plates were centrifuged (4 minutes at 800×g) to increase cell-to-cell contact and placed in a CO2 incubator at 37° C. After 4 h of incubation, 0.1 ml of the supernatant was collected from each well and the radioactivity was determined with a gamma counter. In case of evaluating cytotoxicity against target cells that endogenously express RNF43, CXADRL1, or GCUD1, the cytolytic activity was tested in the presence of a 30-fold excess of unlabeled K562 cells to reduce any non-specific lysis due to NK-like effectors. […] The MHC restriction was examined by blocking assay, measuring the inhibition of the cytotoxicity with anti-HLA-class I (W6/32) antibody and anti-HLA-class II antibody, or anti-CD4 antibody and anti-CD8 antibody (DAKO).
(§2) The percentage of specific cytotoxicity was determined by calculating the percentage of specific ^51Cr-release by the following formula: {(cpm of the test sample release−cpm of the spontaneous release)/(cpm of the maximum release−cpm of the spontaneous release)}×100. Spontaneous release was determined by incubating the target cells alone in the absence of effectors, and the maximum release was obtained by incubating the targets with 1N HCl. All determinants were done in duplicate, and the standard errors of the means were consistently below 10% of the value of the mean.

T2 cells (HLA-A*0201) = assay: 51Cr-release cytotoxicity assay of peptide-induced CTLs on T2 cells; details: for Cytotoxic activity of peptide-induced CTL line/clone on non-pulsed target: T2 not pulsed with any peptide; for Cytotoxic activity of peptide-induced CTL line/clone on peptide-pulsed target: T2 pulsed with the peptide
Protocol: as §1, §2

MKN74 = assay: Cytotoxicity of CTL clone against tumor cell line MKN74; type: cell-based, human; details: expresses CXADRL1 but not HLA-A*0201
Protocol: (§3) Target cells were labeled with 100 μCi of Na2^51CrO4 (Perkin Elmer Life Sciences) for 1 h at 37° C. in a CO2 incubator. When peptide-pulsed targets were used, target cells were incubated with the addition of 20 μg/ml of the peptide for 16 h at 37° C. before the labeling with Na2^51CrO4. Target cells were rinsed and mixed with effectors at a final volume of 0.2 ml in round-bottom microtiter plates. The plates were centrifuged (4 minutes at 800×g) to increase cell-to-cell contact and placed in a CO2 incubator at 37° C. After 4 h of incubation, 0.1 ml of the supernatant was collected from each well and the radioactivity was determined with a gamma counter. In case of evaluating cytotoxicity against target cells that endogenously express RNF43, CXADRL1, or GCUD1, the cytolytic activity was tested in the presence of a 30-fold excess of unlabeled K562 cells to reduce any non-specific lysis due to NK-like effectors. […]
(§4) The percentage of specific cytotoxicity was determined by calculating the percentage of specific ^51Cr-release by the following formula: {(cpm of the test sample release−cpm of the spontaneous release)/(cpm of the maximum release−cpm of the spontaneous release)}×100. Spontaneous release was determined by incubating the target cells alone in the absence of effectors, and the maximum release was obtained by incubating the targets with 1N HCl. […]

SNU475 cells = assay: Blocking assay with antibodies, target SNU475; type: cell-based, human
Protocol: as §1

SNU-C4 [1] = assay: Cytotoxicity of CTL clone against tumor cell line SNU-C4; details: HLA-A*0201 but not CXADRL1; RNF43 but little HLA-A24
Protocol: as §3, §4

MKN45 = assay: Cytotoxicity of CTL clone against tumor cell line MKN45; type: cell-based, human; details: expresses GCUD1 but not HLA-A*0201
Protocol: as §3, §4

SNU-C4 [2] = system: SNU-C4
Protocol: as §3, §4

Protocol for HCT116: as §3, §4
Protocol for HT29: as §1, §2
Protocol for TISI cells (HLA-A24/24): as §1, §2
Protocol for WiDR cells: as §1

For “5′-ACCACTCATGCTACCA-3′ (phosphorothioate, further chemistry not given here) [RNF43-AS1, antisense S-oligonucleotide]”, the “Number of surviving cells compared with RNF43-S1” value (LoVo colon cancer cells) was “significantly fewer” and the “Expression of RNF43 compared to control S-oligonucleotides (RNF43-S1)” value (RNF43) was “significantly suppressed”.
With ALSSGLYQC [CXADRL1-207, ALSSGLYQC] the “Cytotoxic activity of peptide-induced CTLs against SNU475” value (SNU475) was “potent cytotoxic activity”, the “Cytotoxic activity of peptide-induced CTL line/clone on non-pulsed target” value (T2 cells (HLA-A*0201)) was “without showing any cytotoxic activity” and the “Cytotoxic activity of peptide-induced CTL line/clone on peptide-pulsed target” value (T2 cells (HLA-A*0201)) was “very potent cytotoxic activity”. For the same substance, the “Cytotoxic activity of CTL clone against MKN74” value (MKN74) was “not against”, the “Cytotoxicity of CTL clone against SNU475 with anti-HLA-Class I antibody and anti-CD8 antibody” value (SNU475 cells) was “significantly inhibited” and the “Cytotoxic activity of CTL clone against SNU-C4” value (SNU-C4 [1]) was “not against”.
With KMDAEHPEL [GCUD1-196, KMDAEHPEL] the “Cytotoxic activity of peptide-induced CTLs against SNU475” value (SNU475) was “potent cytotoxic activity”, the “Cytotoxic activity of peptide-induced CTL line/clone on non-pulsed target” value (T2 cells (HLA-A*0201)) was “without showing any cytotoxic activity” and the “Cytotoxic activity of peptide-induced CTL line/clone on peptide-pulsed target” value (T2 cells (HLA-A*0201)) was “very potent cytotoxic activity”. The “Cytotoxic activity of CTL clone against MKN45” value (MKN45) was “not against” and the “Cytotoxicity of CTL clone against SNU475 with anti-HLA-Class I antibody and anti-CD8 antibody” value (SNU475 cells) was “significantly inhibited”.
For NSQPVWLCL [RNF43-721, NSQPVWLCL], the “Cytotoxic activity of CTL clone on irrelevant peptide pulsed TISI” value (TISI cells (HLA-A24/24)) was “did not show any cytotoxic activity”, the “Cytotoxicity of CTL lines (9mer) ×2 Pep(+)” value (TISI cells (HLA-A24/24)) was 26% and the “Cytotoxicity of CTL lines (9mer) ×2 Pep(−)” value (TISI cells (HLA-A24/24)) was 0%. The “Cytotoxicity of CTL lines (9mer) ×20 Pep(+)” value (TISI cells (HLA-A24/24)) was 68%, the “Cytotoxicity of CTL lines (9mer) ×20 Pep(−)” value (TISI cells (HLA-A24/24)) was 0% and the “Cytotoxic activity of CTL clone on HT29” value (HT29) was “potent cytotoxic activity”. For the same substance, the “Cytotoxic activity of CTL clone on HCT116” value (HCT116) was “did not show any cytotoxic activity”, the “Cytotoxic activity of CTL clone on WiDR” value (WiDR) was “potent cytotoxic activity” and the “Cytotoxicity of CTL clone on WiDR with anti-HLA-Class I, CD3, and CD8 antibodies” value (WiDR cells) was “significantly inhibited”. For the same substance, the “Cytotoxic activity of CTL clone against SNU-C4” value (SNU-C4 [2]) was “did not show any cytotoxic activity”.
